Data on one compound can be found in US12558322B2, “Control method of local release for target compounds by using patterning hydrogel to nanoporous membrane” (KNU-Industry Cooperation Foundation, priority 2018, dated 2026).

In experiment [1] the test system is YD-10B cells. Description: Live/dead assay of YD-10B cells on 5-FU containing HAMA hydrogel arrays. The format is cell-based, human. The following applies: 5 days. Here is the method: (§1) To estimate the rate of apoptosis of tumor cells at a controlled release anticancer drug rate, YD-10B cells derived from human oral squamous cancer were cultured on a 15% (w/v) HAMA hydrogel-arrayed amphipathic membrane. The amphipathic membrane was prepared at a size of 20 mm×20 mm and was fixed at the bottom of the cell culture dish with the use of PDMS blocks as supporters to prevent floating in the culture media. Overall, YD-10B cells (100 μL, cell density of 1.0×10^6 cells/mL) were seeded on the HAMA hydrogel-arrayed amphipathic membrane that contained 5-FU. As a control group, YD-10B cells without 5-FU were seeded on the array. The cells were cultured in culture media [RPMI (RPMI 1640 medium, HEPES)] (Gibco, CA, USA) with 10% fetal bovine serum (FBS) (Gibco) and 1% penicillin/streptomycin (Gibco) in an incubator (MCO-18AIC, Sanyo, Japan) at 5% CO2 and 37.5° C. After 5 days, the live/dead assay [live/dead viability/cytotoxicity kit (Invitrogen, MA, USA)] was conducted to evaluate anticancer performance. The solution for the live/dead assay was mixed with 20 μL of Ethidium Homodimer-1 (EthD-1) and 5 μL of calcein-AM in 10 mL of DPBS in the dark room. The culture media were eliminated using a micropipette, and the residual media were washed twice by DPBS. The staining solution was added on the arrayed amphipathic membrane and incubated for 40 min. The viability of the YD-10B cells on the amphipathic membrane was evaluated by a fluorescent microscope (Zeiss, Germany). The cytoplasm of live cells was stained with calcein-AM (green fluorescence, excitation wavelength: 488 nm/emission wavelength: 515 nm), while the DNA of dead cells was stained with EthD-1 as fluorescence red (excitation: 570 nm/emission: 602 nm). Additionally, the actin filaments of cells were stained to verify the colony formations of tumor cells. For the fixation of cultured cells, the membrane was washed with DPBS and was immersed in 4% paraformaldehyde (PFA) for 15 min. Triton X-100 was used for permeabilization for 5 min at −20° C. on a PFA-immersed membrane. […]

The test system of experiment [2] is YD-10B cells. The experiment can be described thus: Actin filament staining of YD-10B cells (colony formation). The experiment is classed as cell-based, human. The following applies: 5-FU encapsulated in HAMA hydrogel array, 5 days. Here is the method: as §1, with “The solution for the live/dead assay was mixed with 20 μL of Ethidium Homodimer-1 (EthD-1) and 5 μL of calcein-AM in 10 mL of DPBS in the dark room. The culture media were eliminated using a micropipette, and the residual media were washed twice by DPBS. The staining solution was added on the arrayed amphipathic membrane and incubated for 40 min.” left out, “nm).” for “nm). Additionally, the actin filaments of cells were stained to verify the colony formations of tumor cells. For the fixation of cultured cells, the membrane was washed with DPBS and was immersed in 4% paraformaldehyde (PFA) for 15 min. Triton X-100 was used for permeabilization for 5 min at −20° C. on a PFA-immersed membrane.”

As for `O=c1[nH]cc(F)c(=O)[nH]1` [5-FU], the “reduction of adhesion rate (calcein-AM expression area)” value in experiment [1] (5-FU encapsulated in HAMA hydrogel array, vs without 5-FU) is given as “approximately 48%”. Moreover, the “viable cells (live/dead assay)” value in experiment [1] (HAMA hydrogel arrays containing 5-FU) is given as “only a few viable cells were visible”. Further, the “adhesion area (calcein-AM)” value in experiment [1] (cultured with 5-FU in HAMA hydrogel array) is on record as “approximately 19,321 μm^2”. The “cell growth and colony formation” value in experiment [2] is “can inhibit the growth and proliferation of cells”.
